Measurements reported in ChEMBL document CHEMBL1129710, “Glycomimetic selectin inhibitors: (-D-mannopyranosyloxy)methylbiphenyls” (Bioorg Med Chem Lett, 1996).
Activity calls are given as the source filed them. The rule behind the calls is not given here.

Assays:
[1] = test system: HL-60; experiment: Compound was tested for its ability to inhibit sialyl Lewis X dependent binding of HL-60 cells to P-selectin fusion protein; type: functional, cell-based; details: Homo sapiens
[2] = biological target: T1, E-selectin (Mus musculus, UniProt Q00690); experiment: Compound was tested for its ability to inhibit sialyl Lewis X dependent binding of HL-60 cells to Selectin E fusion protein
T1 sequence (Q00690 whole entry): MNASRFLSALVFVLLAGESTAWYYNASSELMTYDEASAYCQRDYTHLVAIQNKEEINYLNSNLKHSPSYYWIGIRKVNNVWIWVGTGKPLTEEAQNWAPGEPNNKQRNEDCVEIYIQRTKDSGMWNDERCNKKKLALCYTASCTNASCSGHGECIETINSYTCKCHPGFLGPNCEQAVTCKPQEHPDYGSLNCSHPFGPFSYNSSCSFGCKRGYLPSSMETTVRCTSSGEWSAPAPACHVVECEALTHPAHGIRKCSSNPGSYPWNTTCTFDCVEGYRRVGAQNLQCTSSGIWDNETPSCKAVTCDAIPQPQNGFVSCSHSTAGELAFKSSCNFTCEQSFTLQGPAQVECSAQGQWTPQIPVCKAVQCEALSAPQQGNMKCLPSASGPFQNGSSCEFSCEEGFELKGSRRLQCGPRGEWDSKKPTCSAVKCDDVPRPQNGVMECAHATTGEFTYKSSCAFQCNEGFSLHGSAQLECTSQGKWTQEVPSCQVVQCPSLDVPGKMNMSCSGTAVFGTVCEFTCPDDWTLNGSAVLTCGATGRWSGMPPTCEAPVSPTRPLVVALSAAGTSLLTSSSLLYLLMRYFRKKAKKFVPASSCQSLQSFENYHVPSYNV

[3] = test system: HL-60; experiment: Compound was tested for its ability to inhibit sialyl Lewis X (sLex, IC50 = 2 mM) dependent binding of HL-60 cells to P-selectin fusion protein; type: functional
[4] = test system: HL-60; experiment: Compound was tested for its ability to inhibit sialyl Lewis X (sLex, IC50 = 2 mM) dependent binding of HL-60 cells to P-selectin fusion protein; Not assayed; type: functional, cell-based

SMILES	Ratio [3]	also measured
CC(=O)N[C@H]1[C@H]([C@H](O)[C@H](O)CO)O[C@@](O[C@H]2[C@@H](O)[C@@H](CO)O[C@@H](O[C@@H]([C@H](O[C@@H]3O[C@@H](C)[C@@H](O)[C@@H](O)[C@@H]3O)[C@H](C=O)NC(C)=O)[C@H](O)CO)[C@@H]2O)(C(=O)O)C[C@@H]1O [SIALYL LEWIS X]	–	IC50 [1]: 2000 µM; IC50 [2]: 3000 µM
O=C(O)COc1cccc(-c2cccc(CO[C@H]3O[C@H](CO)[C@@H](O)[C@@H](O)[C@@H]3O)c2)c1	4.8	–
O=C(O)Cc1cccc(-c2ccccc2CO[C@H]2O[C@H](CO)[C@@H](O)[C@@H](O)[C@@H]2O)c1	–	Ratio [4]: inactive
Cc1cc(-c2cccc(CO[C@H]3O[C@H](CO)[C@@H](O)[C@@H](O)[C@@H]3O)c2)cc(C)c1OCC(=O)O	0.5	–
O=C(O)c1cccc(-c2cccc(CO[C@H]3O[C@H](CO)[C@@H](O)[C@@H](O)[C@@H]3O)c2)c1	2.5	–
O=C(O)Cc1cccc(-c2cccc(CO[C@H]3O[C@H](CO)[C@@H](O)[C@@H](O)[C@@H]3O)c2)c1	1.2	–
O=C(O)Cc1ccc(-c2cccc(CO[C@H]3O[C@H](CO)[C@@H](O)[C@@H](O)[C@@H]3O)c2)cc1	>20	–
O=C(O)CCC(=O)c1ccc(-c2cccc(CO[C@H]3O[C@H](CO)[C@@H](O)[C@@H](O)[C@@H]3O)c2)cc1	>>10	–
O=C(O)COc1ccc(-c2cccc(CO[C@H]3O[C@H](CO)[C@@H](O)[C@@H](O)[C@@H]3O)c2)cc1	1.2	–
O=C(O)Cc1cccc(-c2ccc(CO[C@H]3O[C@H](CO)[C@@H](O)[C@@H](O)[C@@H]3O)cc2)c1	>>2.3	–
